Where two headings read alike, the source gives them in different places.
What was measured:
Format in all cases: binding
[1] = molecular target: T1, HeLa cell extract proteins (Homo sapiens, UniProt O00148)
T1 construct: endogenous in cells; host or cells: HeLa cell extract

[2] = molecular target: T2, HeLa cell extract proteins (Homo sapiens, UniProt O00746)
T2 construct: endogenous in cells; host or cells: HeLa cell extract
T2 sequence (O00746 29-187): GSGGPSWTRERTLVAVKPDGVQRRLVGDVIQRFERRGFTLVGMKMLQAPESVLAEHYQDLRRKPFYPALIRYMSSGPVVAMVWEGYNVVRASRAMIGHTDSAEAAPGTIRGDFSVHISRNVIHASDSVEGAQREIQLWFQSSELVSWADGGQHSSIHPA

[3] = molecular target: T3, HeLa cell extract proteins (Homo sapiens, UniProt O15427)
T3 construct: endogenous in cells; host or cells: HeLa cell extract
T3 sequence (O15427 1-465): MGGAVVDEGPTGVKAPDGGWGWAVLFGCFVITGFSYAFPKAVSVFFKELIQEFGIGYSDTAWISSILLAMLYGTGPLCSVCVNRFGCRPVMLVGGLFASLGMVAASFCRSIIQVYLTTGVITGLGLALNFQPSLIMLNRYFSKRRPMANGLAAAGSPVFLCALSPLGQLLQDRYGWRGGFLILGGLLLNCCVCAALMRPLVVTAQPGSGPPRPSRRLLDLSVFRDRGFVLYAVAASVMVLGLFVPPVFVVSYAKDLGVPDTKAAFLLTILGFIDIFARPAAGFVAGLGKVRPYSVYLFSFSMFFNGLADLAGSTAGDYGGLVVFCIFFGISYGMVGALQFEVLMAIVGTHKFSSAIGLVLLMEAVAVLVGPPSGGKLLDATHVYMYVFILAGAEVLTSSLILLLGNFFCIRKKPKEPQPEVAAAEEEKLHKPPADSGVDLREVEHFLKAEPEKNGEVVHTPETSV

[4] = molecular target: T4, HeLa cell extract proteins (Homo sapiens, UniProt O43324)
T4 construct: endogenous in cells; host or cells: HeLa cell extract
T4 sequence (O43324 1-174): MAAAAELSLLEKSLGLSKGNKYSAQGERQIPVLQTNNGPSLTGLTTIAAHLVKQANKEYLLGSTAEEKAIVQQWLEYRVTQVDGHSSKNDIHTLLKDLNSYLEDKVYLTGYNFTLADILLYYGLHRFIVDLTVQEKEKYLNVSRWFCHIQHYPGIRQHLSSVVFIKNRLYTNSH

[5] = molecular target: T5, HeLa cell extract proteins (Homo sapiens, UniProt O94822)
T5 construct: endogenous in cells; host or cells: HeLa cell extract

[6] = molecular target: T6, HeLa cell extract proteins (Homo sapiens, UniProt P28072)
T6 construct: endogenous in cells; host or cells: HeLa cell extract
T6 sequence (P28072 1-239): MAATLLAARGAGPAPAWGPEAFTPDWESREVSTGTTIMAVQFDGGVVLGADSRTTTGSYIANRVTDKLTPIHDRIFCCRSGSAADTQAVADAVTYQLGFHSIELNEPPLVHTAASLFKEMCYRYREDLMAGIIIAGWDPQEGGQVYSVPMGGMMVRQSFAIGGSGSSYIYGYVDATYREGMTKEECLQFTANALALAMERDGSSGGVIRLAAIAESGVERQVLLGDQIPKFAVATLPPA

[7] = molecular target: T7, HeLa cell extract proteins (Homo sapiens, UniProt P51648)
T7 construct: endogenous in cells; host or cells: HeLa cell extract

[8] = molecular target: T8, HeLa cell extract proteins (Homo sapiens, UniProt P56192)
T8 construct: endogenous in cells; host or cells: HeLa cell extract
T8 sequence (P56192 1-900): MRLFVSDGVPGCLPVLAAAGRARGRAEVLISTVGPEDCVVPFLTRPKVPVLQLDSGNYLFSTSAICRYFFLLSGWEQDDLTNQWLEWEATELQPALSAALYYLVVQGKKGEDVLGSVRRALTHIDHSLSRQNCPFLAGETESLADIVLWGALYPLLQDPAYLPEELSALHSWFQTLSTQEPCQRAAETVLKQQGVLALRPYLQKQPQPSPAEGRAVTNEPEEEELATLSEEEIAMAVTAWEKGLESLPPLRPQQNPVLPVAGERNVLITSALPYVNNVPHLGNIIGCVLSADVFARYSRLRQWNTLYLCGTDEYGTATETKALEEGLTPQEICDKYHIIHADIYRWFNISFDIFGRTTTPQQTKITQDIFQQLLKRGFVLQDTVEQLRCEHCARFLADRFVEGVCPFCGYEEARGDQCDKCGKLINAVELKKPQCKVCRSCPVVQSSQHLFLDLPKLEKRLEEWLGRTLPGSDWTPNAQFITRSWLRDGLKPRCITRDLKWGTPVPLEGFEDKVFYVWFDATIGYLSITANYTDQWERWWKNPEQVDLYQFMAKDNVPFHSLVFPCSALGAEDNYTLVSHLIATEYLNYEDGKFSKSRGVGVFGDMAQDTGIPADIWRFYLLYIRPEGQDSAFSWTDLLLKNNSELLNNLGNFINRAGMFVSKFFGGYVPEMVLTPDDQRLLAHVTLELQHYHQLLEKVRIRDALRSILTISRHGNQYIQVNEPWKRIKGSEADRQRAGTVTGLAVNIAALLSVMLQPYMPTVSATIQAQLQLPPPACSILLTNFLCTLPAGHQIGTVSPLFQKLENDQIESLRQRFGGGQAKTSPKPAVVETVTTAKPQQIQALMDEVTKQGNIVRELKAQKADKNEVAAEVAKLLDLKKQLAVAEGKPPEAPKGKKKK

[9] = molecular target: T9, HeLa cell extract proteins (Homo sapiens, UniProt Q5T8D3)
T9 construct: endogenous in cells; host or cells: HeLa cell extract
T9 sequence (Q5T8D3 1-534): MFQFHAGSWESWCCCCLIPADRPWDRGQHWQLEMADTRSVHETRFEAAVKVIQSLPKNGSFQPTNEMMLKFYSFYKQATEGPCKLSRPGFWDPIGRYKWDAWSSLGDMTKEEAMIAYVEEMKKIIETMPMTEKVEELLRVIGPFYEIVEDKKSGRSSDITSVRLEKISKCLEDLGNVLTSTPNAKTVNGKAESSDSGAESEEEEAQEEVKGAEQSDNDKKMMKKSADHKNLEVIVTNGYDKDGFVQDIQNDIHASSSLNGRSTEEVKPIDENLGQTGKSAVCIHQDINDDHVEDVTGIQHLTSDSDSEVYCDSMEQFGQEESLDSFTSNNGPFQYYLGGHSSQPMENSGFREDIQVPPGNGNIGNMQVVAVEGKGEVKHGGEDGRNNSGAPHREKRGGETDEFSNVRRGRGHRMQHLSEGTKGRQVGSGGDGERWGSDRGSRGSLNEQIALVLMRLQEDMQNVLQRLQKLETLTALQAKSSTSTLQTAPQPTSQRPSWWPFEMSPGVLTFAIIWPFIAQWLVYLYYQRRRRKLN

[10] = HeLa, protein EEF1E1 (EUKARYOTIC TRANSLATION ELONGATION FACTOR 1 EPSILON-1)
[11] = HeLa, protein DDX39 (CDNA FLJ55484, HIGHLY SIMILAR TO ATP-DEPENDENT RNA HELICASE DDX39.)

T5 sequence (O94822 whole entry): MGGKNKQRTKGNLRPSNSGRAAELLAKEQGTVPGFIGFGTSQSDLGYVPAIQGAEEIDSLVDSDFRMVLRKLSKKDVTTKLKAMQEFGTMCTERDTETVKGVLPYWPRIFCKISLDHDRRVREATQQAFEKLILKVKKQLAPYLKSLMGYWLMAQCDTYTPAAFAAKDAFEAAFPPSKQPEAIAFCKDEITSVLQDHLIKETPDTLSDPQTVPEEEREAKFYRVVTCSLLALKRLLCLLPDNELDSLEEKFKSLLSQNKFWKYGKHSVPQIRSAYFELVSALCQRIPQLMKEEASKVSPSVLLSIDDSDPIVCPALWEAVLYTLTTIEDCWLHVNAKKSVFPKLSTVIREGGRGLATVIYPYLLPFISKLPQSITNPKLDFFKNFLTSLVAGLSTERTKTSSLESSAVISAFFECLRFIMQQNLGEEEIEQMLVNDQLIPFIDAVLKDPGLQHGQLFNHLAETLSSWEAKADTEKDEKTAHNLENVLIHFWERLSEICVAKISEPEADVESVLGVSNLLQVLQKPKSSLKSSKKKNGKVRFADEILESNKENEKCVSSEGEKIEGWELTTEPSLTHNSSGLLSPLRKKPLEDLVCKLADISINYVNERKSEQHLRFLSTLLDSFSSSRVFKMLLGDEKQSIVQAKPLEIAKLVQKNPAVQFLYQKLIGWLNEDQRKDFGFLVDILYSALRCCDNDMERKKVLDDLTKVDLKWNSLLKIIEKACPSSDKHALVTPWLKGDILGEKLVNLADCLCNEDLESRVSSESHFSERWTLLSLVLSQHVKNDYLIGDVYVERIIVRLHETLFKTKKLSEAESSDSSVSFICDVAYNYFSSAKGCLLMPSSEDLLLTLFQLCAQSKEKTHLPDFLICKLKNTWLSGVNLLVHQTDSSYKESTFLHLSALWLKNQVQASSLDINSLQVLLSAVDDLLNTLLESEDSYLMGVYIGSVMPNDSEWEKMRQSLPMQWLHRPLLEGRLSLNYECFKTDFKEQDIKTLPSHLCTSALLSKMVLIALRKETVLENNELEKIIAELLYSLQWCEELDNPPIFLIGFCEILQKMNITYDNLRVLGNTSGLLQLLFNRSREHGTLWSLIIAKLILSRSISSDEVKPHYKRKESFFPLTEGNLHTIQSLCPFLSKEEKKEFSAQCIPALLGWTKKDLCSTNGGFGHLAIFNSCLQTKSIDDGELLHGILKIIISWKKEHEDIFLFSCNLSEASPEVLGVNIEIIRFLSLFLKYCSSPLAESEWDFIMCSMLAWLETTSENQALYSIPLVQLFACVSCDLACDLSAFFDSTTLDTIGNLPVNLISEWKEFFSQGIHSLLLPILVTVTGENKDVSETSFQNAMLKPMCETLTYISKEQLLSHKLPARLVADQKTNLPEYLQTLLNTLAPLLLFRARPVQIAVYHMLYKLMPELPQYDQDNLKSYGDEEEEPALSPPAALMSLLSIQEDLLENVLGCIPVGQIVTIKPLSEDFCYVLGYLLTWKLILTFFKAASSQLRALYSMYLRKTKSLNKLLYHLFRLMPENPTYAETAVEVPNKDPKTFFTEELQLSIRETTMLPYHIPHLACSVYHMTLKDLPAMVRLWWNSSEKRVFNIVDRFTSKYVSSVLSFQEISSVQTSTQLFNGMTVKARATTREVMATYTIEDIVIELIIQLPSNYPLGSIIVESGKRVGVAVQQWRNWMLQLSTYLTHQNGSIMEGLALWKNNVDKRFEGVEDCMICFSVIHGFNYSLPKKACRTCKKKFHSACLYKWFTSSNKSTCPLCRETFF
T1 sequence (O00148 whole entry): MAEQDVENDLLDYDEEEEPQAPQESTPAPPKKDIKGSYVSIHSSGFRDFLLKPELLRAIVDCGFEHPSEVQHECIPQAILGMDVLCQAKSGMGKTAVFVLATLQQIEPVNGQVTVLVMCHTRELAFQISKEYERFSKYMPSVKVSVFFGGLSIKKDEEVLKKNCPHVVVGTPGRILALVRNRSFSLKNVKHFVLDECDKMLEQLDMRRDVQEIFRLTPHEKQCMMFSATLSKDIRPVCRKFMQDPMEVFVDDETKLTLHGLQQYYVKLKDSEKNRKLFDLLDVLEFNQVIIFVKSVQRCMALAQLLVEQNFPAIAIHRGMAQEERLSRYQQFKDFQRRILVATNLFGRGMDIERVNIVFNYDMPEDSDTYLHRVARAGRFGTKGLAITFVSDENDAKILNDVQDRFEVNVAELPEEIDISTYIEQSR
T7 sequence (P51648 whole entry): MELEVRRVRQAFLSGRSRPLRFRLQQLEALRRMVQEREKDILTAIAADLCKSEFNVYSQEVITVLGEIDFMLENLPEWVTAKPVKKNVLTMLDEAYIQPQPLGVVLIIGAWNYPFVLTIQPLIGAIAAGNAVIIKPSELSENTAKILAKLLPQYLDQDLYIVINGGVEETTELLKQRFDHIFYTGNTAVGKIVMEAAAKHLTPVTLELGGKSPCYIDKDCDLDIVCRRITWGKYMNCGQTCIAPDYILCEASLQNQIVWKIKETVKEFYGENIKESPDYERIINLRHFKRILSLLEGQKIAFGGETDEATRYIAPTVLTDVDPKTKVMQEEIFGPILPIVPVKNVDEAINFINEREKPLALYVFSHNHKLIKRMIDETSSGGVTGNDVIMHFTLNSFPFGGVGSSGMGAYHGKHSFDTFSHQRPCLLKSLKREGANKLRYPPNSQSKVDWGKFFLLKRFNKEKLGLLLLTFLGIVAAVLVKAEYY

SMILES	fold changes relative to vehicle control ([1]; HeLa, protein DDX39)	fold changes relative to vehicle control ([2]; HeLa, protein NME4)	fold changes relative to vehicle control ([3]; HeLa, protein SLC16A3)	fold changes relative to vehicle control ([5]; HeLa, captured protein RNF160)	fold changes relative to vehicle control ([6]; HeLa, protein PSMB6)	fold changes relative to vehicle control ([7]; HeLa, protein ALDH3A2)	fold changes relative to vehicle control ([8]; HeLa, captured protein MARS)	fold changes relative to vehicle control ([9]; HeLa, captured protein ACBD5)	fold changes relative to vehicle control [1, 11]	fold changes relative to vehicle control ([4]; protein EEF1E1, HeLa)	fold changes relative to vehicle control ([5]; captured protein RNF160, HeLa)	fold changes relative to vehicle control ([6]; protein PSMB6, HeLa)	fold changes relative to vehicle control ([8]; captured protein MARS, HeLa)	fold changes relative to vehicle control ([9]; HeLa, protein ACBD5)	further results
Nc1nc2c(c(=O)[nH]1)N(C=O)C(CNc1ccc(C(=O)N[C@@H](CCC(=O)O)C(=O)O)cc1)CN2 (stereo partly drawn) [LEU, leucovorin]	1.07	1.04	0.96	1.1	1.01	0.89	0.92	1.01							fold changes relative to vehicle control [4, 10]: 0.84
Nc1nc2[nH]cc(CCc3ccc(C(=O)N[C@@H](CCC(=O)O)C(=O)O)cc3)c2c(=O)[nH]1 [PTX, pemetrexed]															fold changes relative to vehicle control [1]: 0.99; fold changes relative to vehicle control [2]: 0.81; fold changes relative to vehicle control [3]: 0.85; fold changes relative to vehicle control [4]: 0.89; fold changes relative to vehicle control [5]: 1.09; fold changes relative to vehicle control [6]: 1.1; fold changes relative to vehicle control [7]: 0.93; fold changes relative to vehicle control [8]: 0.93; fold changes relative to vehicle control [9]: 0.88
CCCCCCOc1ccc(Cc2cnc(N)nc2N)cc1 [compound 1]		0.97	0.83			0.94			1.22 fold	0.9	1.01	1.31	0.74	1.13	
CCCCCCOc1cccc(Cc2cnc(N)nc2N)c1 [compound 2]		0.92	0.94			1.07			2.4 fold	1.19	1.08	1.36	1.07	1.13	
Nc1nc2cccc(-c3ccccc3)c2n1Cc1ccc(Cl)c(Cl)c1 [compound 3]		0.96	0.94			1.05			0.86 fold	1.12	1.13	1.09	0.93	0.92	
NCCOCCOCC(=O)Nc1nc2ncc(CNc3ccc(C(=O)NC(CCC(=O)O)C(=O)O)cc3)nc2c(=O)[nH]1 (stereo not drawn) [compound 6]	1.17	0.81	0.85	1.17	1.29	0.92	1.01	1.09							fold changes relative to vehicle control [4]: 1.02
NCCCNc1ccc(C(=O)NC(CCC(=O)O)C(=O)O)cc1 (stereo not drawn) [compound 7]	0.88	0.98	0.94	1.17	1.02	0.89	0.94	1.03							fold changes relative to vehicle control [4, 10]: 0.98
